Experimental findings from paper PMC12615753, “Glutathione as a taste modulator: molecular mechanisms of interaction with umami and sweet taste receptors” (Food Chemistry: Molecular Sciences, 2025) are described below.

One experiment has as its target T1, hTAS1R2/rTAS1R3 (UniProt Q8TE23+Q923K1).
T1 construct: The cDNA coding region of rTAS1R3 was synthesized with optimized-codon usage for human expression; expressed in transfected cells
T1 sequence (Q8TE23 20-839): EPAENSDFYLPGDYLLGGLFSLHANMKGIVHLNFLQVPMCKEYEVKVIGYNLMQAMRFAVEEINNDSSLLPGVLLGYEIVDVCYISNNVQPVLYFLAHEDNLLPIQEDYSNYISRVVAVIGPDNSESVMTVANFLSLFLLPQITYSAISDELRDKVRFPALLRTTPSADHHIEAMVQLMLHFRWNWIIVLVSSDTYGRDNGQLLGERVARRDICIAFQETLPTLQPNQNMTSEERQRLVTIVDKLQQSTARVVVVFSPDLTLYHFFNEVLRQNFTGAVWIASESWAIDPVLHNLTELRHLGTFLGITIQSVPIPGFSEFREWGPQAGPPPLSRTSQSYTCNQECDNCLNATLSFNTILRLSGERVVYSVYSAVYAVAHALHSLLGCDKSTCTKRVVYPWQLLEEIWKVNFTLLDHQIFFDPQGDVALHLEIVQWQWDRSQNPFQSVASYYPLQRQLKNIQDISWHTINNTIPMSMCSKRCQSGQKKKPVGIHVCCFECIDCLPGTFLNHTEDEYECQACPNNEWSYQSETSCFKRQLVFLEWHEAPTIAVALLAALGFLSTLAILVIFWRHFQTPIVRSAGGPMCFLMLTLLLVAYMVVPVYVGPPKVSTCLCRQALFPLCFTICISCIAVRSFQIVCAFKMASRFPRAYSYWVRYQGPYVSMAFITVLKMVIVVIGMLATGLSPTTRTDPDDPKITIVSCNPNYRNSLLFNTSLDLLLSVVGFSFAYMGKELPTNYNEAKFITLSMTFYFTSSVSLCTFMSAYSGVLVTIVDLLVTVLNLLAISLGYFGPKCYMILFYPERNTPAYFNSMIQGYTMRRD
T1 sequence (Q923K1 21-858): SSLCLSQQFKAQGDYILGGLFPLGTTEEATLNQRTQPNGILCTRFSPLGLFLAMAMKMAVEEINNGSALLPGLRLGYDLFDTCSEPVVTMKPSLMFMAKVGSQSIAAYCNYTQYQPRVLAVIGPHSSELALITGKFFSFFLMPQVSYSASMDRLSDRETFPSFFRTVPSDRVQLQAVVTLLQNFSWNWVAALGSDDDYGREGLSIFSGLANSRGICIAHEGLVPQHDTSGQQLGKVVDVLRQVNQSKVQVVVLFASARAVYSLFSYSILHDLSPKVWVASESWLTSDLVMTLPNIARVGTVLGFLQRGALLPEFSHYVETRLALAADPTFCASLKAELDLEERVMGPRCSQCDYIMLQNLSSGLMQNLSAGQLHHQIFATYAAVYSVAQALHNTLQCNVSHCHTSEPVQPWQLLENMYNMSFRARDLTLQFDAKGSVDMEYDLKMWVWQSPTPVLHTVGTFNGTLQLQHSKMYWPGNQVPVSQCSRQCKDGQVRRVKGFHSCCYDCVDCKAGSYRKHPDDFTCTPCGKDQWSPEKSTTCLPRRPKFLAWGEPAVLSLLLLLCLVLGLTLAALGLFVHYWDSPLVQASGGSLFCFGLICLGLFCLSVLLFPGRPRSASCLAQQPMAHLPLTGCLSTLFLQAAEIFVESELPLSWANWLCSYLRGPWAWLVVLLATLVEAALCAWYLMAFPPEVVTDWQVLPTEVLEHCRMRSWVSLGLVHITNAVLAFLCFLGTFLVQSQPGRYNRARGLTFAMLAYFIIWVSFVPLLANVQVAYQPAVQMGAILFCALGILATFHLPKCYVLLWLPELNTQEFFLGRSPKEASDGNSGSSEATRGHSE
Briefly: Calcium assay in transfected HEK293T/17 cells, sweet taste receptor. Format: cell-based, human, rat.

The target in the next experiment is T2, hTAS1R1/rTAS1R3 (UniProt Q7RTX1+Q923K1).
T2 construct: UniProtKB number Q7RTX1–1); The cDNA coding region of rTAS1R3 was synthesized with optimized-codon usage for human expression; expressed in transfected cells; host or cells: HEK293T/17 (ATCC CRL-11268)
T2 sequence (Q7RTX1 21-841): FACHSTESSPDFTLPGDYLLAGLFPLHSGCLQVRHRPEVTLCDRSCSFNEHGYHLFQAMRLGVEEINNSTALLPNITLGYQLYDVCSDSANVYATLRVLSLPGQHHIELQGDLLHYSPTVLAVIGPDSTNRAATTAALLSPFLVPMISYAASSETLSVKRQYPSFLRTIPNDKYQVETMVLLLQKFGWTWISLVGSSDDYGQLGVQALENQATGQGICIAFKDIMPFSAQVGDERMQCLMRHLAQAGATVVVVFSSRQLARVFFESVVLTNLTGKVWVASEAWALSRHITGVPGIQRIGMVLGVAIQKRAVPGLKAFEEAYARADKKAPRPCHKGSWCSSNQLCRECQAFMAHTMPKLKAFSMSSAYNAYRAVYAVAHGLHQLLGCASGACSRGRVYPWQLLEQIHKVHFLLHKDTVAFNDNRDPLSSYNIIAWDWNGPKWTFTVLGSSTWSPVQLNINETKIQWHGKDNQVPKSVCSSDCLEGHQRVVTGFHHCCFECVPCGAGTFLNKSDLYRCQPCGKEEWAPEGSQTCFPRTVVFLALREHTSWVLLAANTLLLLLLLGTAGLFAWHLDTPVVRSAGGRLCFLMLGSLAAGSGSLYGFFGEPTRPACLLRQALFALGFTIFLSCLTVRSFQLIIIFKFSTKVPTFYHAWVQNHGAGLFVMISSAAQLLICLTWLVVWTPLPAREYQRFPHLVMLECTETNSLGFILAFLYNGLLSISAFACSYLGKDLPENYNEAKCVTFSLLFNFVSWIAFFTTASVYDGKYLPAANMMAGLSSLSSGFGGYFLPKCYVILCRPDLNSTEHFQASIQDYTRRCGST
T2 sequence (Q923K1 21-858): T1 sequence (Q923K1 21-858)
Briefly: Calcium assay (GCaMP6s, Gα15i2) in transiently transfected HEK293T/17 cells. Format: cell-based, human, rat. As for the experimental part:
To this end, hTAS1R1/rTAS1R3 and the chimeric G protein Gα15i2 were transiently expressed in HEK293T cells. Cellular responses were assessed via calcium imaging using a fluorescent protein calcium biosensor (GCaMP6s) and compared with those of mock-transfected cells.

Experimental for hTAS1R2/rTAS1R3: HEK293T/17 cells (ATCC CRL-11268) were seeded into clear bottom black 96-well plates coated with poly-D-lysine at a density of 32500 cells/well in 100 μL of DMEM containing 4.5 g/L glucose and supplemented with penicillin/streptomycin, 2 mM GlutaMAX and 10 % dialyzed fetal bovine serum. The plates were incubated for 24 h at 37 °C and 7.3 % CO2 in a humidified atmosphere. After incubation, using Fugene® 4 K (0.46 μL/well, Promega, Illkirch, France), the cells were transiently transfected with pcDNA3-hTAS1R1-WT (60 ng/well) or TAS1R1 mutants, pcDNA4-rTAS1R3 (60 ng/well), pcDNA3-Gα15i2 (10 ng/well), and pGP-CMV-GCaMP6s (Addgene #40753; 10 ng/well) as a genetically encoded calcium indicator. Twenty-four hours after transfection, the HEK293T/17 cells were rinsed with 100 μL of C1 buffer (130 mM NaCl, 5 mM KCl, 10 mM HEPES, 2 mM CaCl2, and 5 mM sodium pyruvate, pH 7.4). For each molecule tested, a semi-logarithmic concentration range was created consisting of seven increasing concentrations and a negative control (zero dose) made of buffer C1. Binary mixtures with different molecules were also made to study potential synergy. In this case, the concentration range was tested in C1 buffer containing the other molecules to be tested. The concentration ranges varied depending on the molecule, its solubility, and its effectiveness in activating the receptor. All the solutions were made on the day of the test to prevent any oxidation of the compounds. If needed, the pH of each solution was adjusted by to pH 7.4 by adding NaOH. After 20 s of basal fluorescence calcium measurement, the cells were stimulated via automatic injection of a range of compounds in eight wells, and the signal emission was recorded for an additional 70 s, via a FlexStation 3® fluorometric microplate reader (Molecular Devices, San Jose, CA, USA). As a control, molecules were also tested on mock-transfected cells with the empty vector. The emitted fluorescence was measured at a wavelength of 510 nm after excitation at 488 nm. Each measurement was performed in duplicate on the same plate, and the experiments were carried out at least four times. Kinetic data were acquired via SoftMax Pro 5.4.6 software (Molecular Devices). For each well, the decrease in the raw fluorescence as the relative fluorescence changed was calculated as ΔF/F0. Replicates were averaged for the wells subjected to the same stimuli, the background signal was subtracted, and the fluorescence changes in mock-transfected cells were subtracted. The half-maximal effective concentration (EC50) and maximal signal amplitude (max ∆F/F0) were calculated via non-linear regression of the sigmoidal function four-parameter logistic equation [f(x) = min + (max − min)/(1 + (x/EC50)^nH)] via SigmaPlot 15.0 software (Grafiti LLC, Palo Alto, CA, USA). […]

One may read the EC50 as the midpoint of the concentration-response curve. Turning to `OC[C@H]1O[C@H](O[C@]2(CCl)O[C@H](CCl)[C@@H](O)[C@@H]2O)[C@H](O)[C@@H](O)[C@H]1Cl` [sucralose, reference compound], the EC50 worked out at 325 ± 140 µM at hTAS1R2/rTAS1R3 (WT, sucralose alone, Fig. 4A) and 251 ± 128 µM on hTAS1R2/rTAS1R3 (agonist alone, Fig. 2).
Regarding `N[C@@H](CCC(=O)N[C@@H](CS)C(=O)NCC(=O)O)C(=O)O` [GSH, γ-L-glutamyl-L-cysteinyl-glycine], at hTAS1R1/rTAS1R3, the “maximal response, fold lower than that elicited by L-Glu” value was 2.2 fold. Also, the EC50 at hTAS1R1/rTAS1R3 (GSH alone, Fig. 6C) worked out at 3430 ± 98 µM; at hTAS1R1/rTAS1R3 (GSH alone, Fig. 6D) it was 4360 ± 308 µM; at hTAS1R1/rTAS1R3 (GSH alone, Fig. 6E), 3210 ± 138 µM; at hTAS1R1/rTAS1R3 (WT, GSH) it was 2520 ± 238 µM; at hTAS1R1/rTAS1R3 (WT, GSH alone, Fig. 4C), 4250 ± 500 µM; on hTAS1R1/rTAS1R3 (agonist alone, Fig. 1, Fig. S2), 2150 ± 87 µM. In addition, at hTAS1R2/rTAS1R3 (agonist alone, Fig. 2), the EC50 was 4060 ± 2510 µM. Also, the “Max ∆F/F0” value on hTAS1R1/rTAS1R3 (WT, GSH) was found to be 0.23 ± 0.01. Besides, at hTAS1R1/rTAS1R3 (WT, GSH), the “R1 = mutant EC50/WT EC50” value came to 1.0. For the same molecule, the “max ∆F/F0” value on hTAS1R1/rTAS1R3 (agonist alone, Fig. 1, Fig. S2) came to 0.46 ± 0.01. In addition, at hTAS1R1/rTAS1R3 (in the presence of 3 mM and 10 mM GSH, Fig. 6F), the “effect on the dose-response curves to L-Glu” value was “a leftward shift and a decrease in the EC50 values”. In addition, the “fold decrease in the EC50 value of sucralose” value at hTAS1R2/rTAS1R3 (in the presence of 10 mM GSH) is 3 fold.
As for `CCCC(CCC)NC(=O)c1ccc2c(c1)OCO2` [S807, N-(heptan-4-yl)benzo[d][1,3]dioxole-5-carboxamide, reference compound], the EC50 at hTAS1R1/rTAS1R3 (WT, S807 alone, Fig. 4E) stood at 1.25 ± 0.12 µM. Also, on hTAS1R1/rTAS1R3 (agonist alone, Fig. 1, Fig. S2), the concentration for a half-maximal effect (EC50) was determined as 1.02 ± 0.08 µM and the “max ∆F/F0” value was 1.87 ± 0.03.
